Source: patent US7163700B2, “Amorphous drug beads” (Capricorn Pharma, Inc., priority 2001, dated 2007)

Assay: Dissolution test of amorphous Itraconazole drug beads versus crystalline Itraconazole (FIG. 1)
Format: physicochemical
Conditions: over the same time period
Description: Quantities of Itraconazole and Pluronic™ F68 in a ratio of 9 parts Itraconazole to 1 part Pluronic™ F68 were melted separately in an oil bath. Once both components were completely melted, they were combined, emulsified with high shear, and poured onto a cold plate to cool rapidly.

dissolution rate (percent dissolution versus time): 20%
SMILES: CCC(C)n1ncn(-c2ccc(N3CCN(c4ccc(OCC5COC(Cn6cncn6)(c6ccc(Cl)cc6Cl)O5)cc4)CC3)cc2)c1=O (stereo not shown) [crystalline Itraconazole, 4-[4-[4-[4-[[2-(2,4-Dichlorophenyl)-2-(1H-1,2,4-triazol-1-ylmethyl)-1,3-dioxolan-4-yl]methoxy]phenyl]-1-piperazinyl]phenyl]-2,4-dihydro-2-(1-methylpropyl)-3H-1,2,4-triazol-3-one]
